This note sets out measurements from PubChem BioAssay (NCI).

Among the test systems are SF-539 CNS; PC-3 prostate; TK-10 renal; MCF7 breast; SK-MEL-5 melanoma; A498 renal; A549 NSCLC; U251 CNS; M14 melanoma; SNB-19 CNS.
Holding throughout (experiment): inhibition of tumour cell growth, NCI panel, 48 h

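Five concentrations, 48 hours, 96-well plates. At the GI50, growth is halved. TGI: total growth inhibition.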

As to `CCCNC(=S)N/N=C/c1cccc(C)n1`, the TGI in the test on SF-539 CNS was 62.9 µM; in the test on PC-3 prostate it was above 100 µM; with TK-10 renal, above 100 µM; in the test with MCF7 breast it was above 100 µM; in the test with SK-MEL-5 melanoma, above 100 µM; with A498 renal it was 87.3 µM. The figures for the TGI in the test on A549 NSCLC, in the test on U251 CNS and with M14 melanoma were 73.5 µM, above 100 µM and 27.2 µM, respectively.
As for `O=C(Cn1nc(Br)c(Br)c1Br)c1ccccc1`, the TGI with SF-539 CNS is 45.1 µM; with PC-3 prostate, above 100 µM; in the test with TK-10 renal it was 53.1 µM; in the test on MCF7 breast it was 83.6 µM; in the test with SK-MEL-5 melanoma, 34.5 µM; in the test on A498 renal, 85.8 µM. The TGI with SNB-19 CNS was above 100 µM; in the test on A549 NSCLC, 89.7 µM; in the test on U251 CNS it was above 100 µM; in the test with M14 melanoma it was 92.1 µM.
Regarding `N#Cc1[nH]c(=O)n(-c2ccc(Cl)cc2)c1N`, the TGI in the test on SF-539 CNS, in the test on PC-3 prostate, with TK-10 renal, in the test on MCF7 breast, with SK-MEL-5 melanoma and in the test with A498 renal was above 10 µM in each case. The TGI with SNB-19 CNS, in the test with A549 NSCLC, in the test with U251 CNS and with M14 melanoma was above 10 µM throughout.
Turning to `O=C1OCC(C#Cc2ccccc2)=C1Cl`, the GI50 was 2.52 µM in the test on SF-539 CNS; 1.99 µM in the test with PC-3 prostate; 1.61 µM in the test with TK-10 renal; 1.71 µM in the test with MCF7 breast; 10 µM in the test with SK-MEL-5 melanoma; 12 µM in the test on A498 renal. Further, the GI50 in the test with SNB-19 CNS was 7.49 µM; with A549 NSCLC, 5.02 µM; in the test on U251 CNS, 1.59 µM; with M14 melanoma it was 3.88 µM. In addition, the TGI in the test with SF-539 CNS is 19.5 µM; in the test with PC-3 prostate it was 5.67 µM; in the test on TK-10 renal it was 6.38 µM; in the test with MCF7 breast, above 100 µM; in the test with SK-MEL-5 melanoma it was 23.5 µM; with A498 renal it was 38 µM. For the same compound, the TGI in the test with SNB-19 CNS is 67.9 µM; in the test on A549 NSCLC, above 100 µM; in the test with U251 CNS it was 3.13 µM; in the test on M14 melanoma it was 16.4 µM.
Regarding `COC(=O)NCCc1[nH]nc2c1C(=O)C=C(Nc1ccccc1)C2=O`, the TGI with SF-539 CNS was 52.4 µM; with PC-3 prostate, above 100 µM; with TK-10 renal, above 100 µM; in the test on MCF7 breast it was 31.2 µM; in the test on SK-MEL-5 melanoma, 32.2 µM; in the test with A498 renal, above 100 µM. The TGI was above 100 µM with SNB-19 CNS, above 100 µM in the test on A549 NSCLC, 42.2 µM with U251 CNS and above 100 µM in the test on M14 melanoma.
For the compound `O=C(/C=C/c1ccc(O)c(O)c1)OCCc1cccc2ccccc12`, the TGI is 18.2 µM in the test with SF-539 CNS; 16.3 µM in the test with PC-3 prostate; 13.6 µM with TK-10 renal; 25.7 µM with MCF7 breast; 5.31 µM in the test on SK-MEL-5 melanoma; 24.8 µM in the test on A498 renal. In addition, the TGI turned out to be 28.4 µM with SNB-19 CNS, 19.7 µM in the test with A549 NSCLC, 21.7 µM with U251 CNS and 20.3 µM in the test with M14 melanoma.
Turning to `CCC1CC2CN3CCc4c([nH]c5c(-c6c(OC)ccc7c8c([nH]c67)[C@]6(C(=O)OC)CC7CC(CC)C6N(CC8)C7)c(O)ccc45)[C@](C(=O)OC)(C2)C13` (stereo not given in full), the TGI in the test with SF-539 CNS came to 39.7 µM; in the test on PC-3 prostate, 30.2 µM; in the test on TK-10 renal it was 33.4 µM; in the test with MCF7 breast it was 22.9 µM; with SK-MEL-5 melanoma, 27.4 µM; with A498 renal it was 28.7 µM. The TGI in the test on SNB-19 CNS stood at 35.8 µM; with A549 NSCLC it was 36.9 µM; in the test on U251 CNS it was 25.7 µM; in the test on M14 melanoma, 78.2 µM.
As for `Cc1cc(N(CCC#N)CCC#N)ccc1/C(N=Nc1cccc([N+](=O)[O-])c1)=N/NC(=O)c1cc(Cl)ccc1O`, the TGI is above 100 µM with SF-539 CNS; above 100 µM in the test with PC-3 prostate; above 100 µM with TK-10 renal; above 100 µM in the test on MCF7 breast; 39.3 µM in the test on SK-MEL-5 melanoma; 49.2 µM with A498 renal. Also, the TGI with SNB-19 CNS, with A549 NSCLC, in the test with U251 CNS and in the test on M14 melanoma was above 100 µM each time.
As for `O=C1C2C=CC1C1C(=O)OC(=O)C21` (stereo not given), the TGI in the test on SF-539 CNS, in the test with PC-3 prostate, with TK-10 renal, in the test on MCF7 breast, with SK-MEL-5 melanoma and in the test on A498 renal was above 100 µM throughout. The TGI in the test with SNB-19 CNS, in the test with A549 NSCLC, in the test with U251 CNS and with M14 melanoma was above 100 µM each time.
Turning to `CC1CCCC2=C1C(c1ccc(Cl)cc1)n1c(s/c(=C\c3ccc(Cl)cc3)c1=O)=N2` (stereo not given), the TGI with PC-3 prostate, in the test with TK-10 renal, with MCF7 breast, with SK-MEL-5 melanoma, with A498 renal and in the test on SNB-19 CNS was above 100 µM in each case. The TGI with A549 NSCLC, in the test on U251 CNS and in the test on M14 melanoma was above 100 µM each time.
On to `NNC(=O)CNC(=O)CSc1nnc(COc2ccc(Cl)cc2)n1-c1ccccc1`, for which the TGI with SF-539 CNS, in the test with PC-3 prostate, in the test with TK-10 renal, with MCF7 breast, with A498 renal and with SNB-19 CNS was above 100 µM in each case. The TGI in the test with A549 NSCLC, in the test on U251 CNS and in the test with M14 melanoma was above 100 µM in each case.
As to `O=P(O)(O)C(O)/C=C/c1ccccc1` (stereo not given), the TGI with PC-3 prostate, in the test on TK-10 renal, with MCF7 breast, in the test with SK-MEL-5 melanoma, in the test on A498 renal and in the test with SNB-19 CNS was above 100 µM in each case. The TGI in the test on A549 NSCLC, in the test with U251 CNS and in the test with M14 melanoma was above 100 µM in each case.
Regarding `CCOP(=O)(Nc1ccc(-c2ccccc2)cc1)OCC`, the TGI with PC-3 prostate, with TK-10 renal, in the test on MCF7 breast, in the test with SK-MEL-5 melanoma, in the test on A498 renal and in the test on SNB-19 CNS was above 100 µM throughout. For the same compound, the TGI in the test on A549 NSCLC, in the test on U251 CNS and in the test with M14 melanoma was above 100 µM each time.
